According to US12559506B2, “Indazole based compounds and associated methods of use” (Arvinas Operations, Inc., priority 2021, dated 2026):
Like-named read-outs stand apart in the source and are kept apart here.

Target: T1, LRRK2 (endogenous, HiBit tagged) (Homo sapiens, UniProt Q5S007)
T1 construct: endogenous in cells; host or cells: HEK293 cells with HiBit knock-in at the endogenous LRRK2 locus, stably expressing firefly luciferase
Assay: Endogenous LRRK2 degradation assay, endogenous gene C-terminally HiBit-tagged in HEK293 cells (Nano-Glo Dual Luciferase)
Assay type: cell-based
From the text: Exemplary Assay for Testing LRRK2 Degradation Driven by Exemplary Hetero-Bifunctional Compounds Designed to Target LRRK2
The assay measures the degradation of LRRK2 in cells where the C-terminus (3′) of the endogenous gene has been tagged with a HiBit sequence in HEK293 cells. The cells also express firefly luciferase, expressed from a Cytomegalovirus promoter and introduced into the HiBit tagged cells and stably expressed. The Nano-Glo® Dual Luciferase Reporter Assay System (Promega™, Madison, WI) was utilized.
Day 1—Preparation of Compound and Assay Plates. Two sets of plates were prepared: a triplicate set for the HiBit assay in white 384-well plates and a triplicate set of plate in black 384-well plates for the Alamar Blue cell viability assay. Briefly, the growth media (DMEM+Glutamax-10% fetal bovine serum-1% Penicillin-Streptomicin) from two T128 flasks was aspirated from the flasks. Cells were washed with Dulbecco's Phosphate Buffered Saline (dPBS) and aspirated. Trypsin (3 mL per flask) was added and the flasks were incubated for 2-3 minutes.
Ten mL of OptiMEM-10% fetal bovine-1% penicillin-streptomycin (hereinafter, “OptiMEM media”) was added to the flask and the cells and transferred to a 50 mL conical tube. A cell count (25 ul of cell into Effendorf vial+25 ul of Trypan Blue Stain) was performed and the cell density adjusted to 15,000 cell/45 μl/well (3.33×10^5/mL) in OptiMEM media.
Fourty-five microliters of the cell suspension (15,000 cells) was aliquoted to each well of the white 384-well plate. The plates incubated at room temperature for 10 minutes before being placed in the 37° C.+5% CO2 incubator overnight
Day 2—Compound Treatment. Exemplary compounds were prepared at a 1 mM starting concentration and 1:3 serial dilution for 11 points CRC prepared and stored in the freezer. The Master Compound Plate was thawed overnight at room temperature. DMSO (20 μL) was added into column 24 of the Master Compound Plate for negative control and 20 μL of 300 μM of Compound 4 in column 23 as positive control.
Intermediate Compound Plate with 4% DMSO in OptiMEM Media. DMSO was added to warm OptiMEM media to achieve a 4% DMSO solution (approximately 50 mL/plate). One-hundred microliters of the OptiMEM-4% DMSO was aliquoted to each well of 384-Well Deep Well Microplates.
The Master Compound Plate and the Intermediate Compound Plate were spun down.
One microliter of compound from the Master Compound Plate was transferred into the Intermediate plate (a 1:100 dilution). The diluted mixture was mixed and 5 μL transferred into the assay plate (a 1:10 dilution) for the final starting concentration of 1 μM. The Treated Assay plates were incubated for 24 hours at 37° C.+5% CO2. The Master Compound Plate was sealed and store at room temperature for a second run that was performed within a week.
Day 3—HiBit Assay. Five microliters of Alamar Blue was added to each well of the black 384-well plates. The plates were incubated for 2 hours in the incubator (37° C.+5% CO2) and at room temperature for one hour. Fluorescence of each plate was read on a plated reader for the Alamar Blue viability assay.
One set of white assay plates was warmed to room temperature (45 minute).
The One Glo luciferase mixture was prepared. The media from white 384-well assay plates was aspirated. Twenty-five μL of the One Glo luciferase mixture was added to each well of the assay plates. The plates were incubated on the bench (room temperature) for 45 minutes, including 10 minutes of shaking at 700 rpm. The luminescence of each plate was read on a plate reader.
1:100 DLR substrate and 1:100 LgBiT Protein dilution were added to the Promega Stop and Glo buffer and mixed just before addition to assay plates. Twenty-five microliters of Stop and Glo mixture was added to each well. Assay plates incubated for at least 45 minutes, including 10 minutes of shaking at 700 rpm. The luminescence of each plate was read on a plate reader.
Analysis of LRRK2 HiBit Screening assays. […]

[1] = endogenous HiBit-tagged LRRK2 in HEK293 cells, 24 hours treatment, read-out: **Endogenous WT Dmax (%)
[2] = endogenous HiBit-tagged LRRK2 in HEK293 cells, 24 hours treatment, read-out: *Endogenous WT DC50
[3] = endogenous HiBit-tagged LRRK2 in HEK293 cells, 24 hours treatment, read-out: Endogenous WT DC50
[4] = endogenous HiBit-tagged LRRK2 in HEK293 cells, 24 hours treatment, read-out: Endogenous WT Dmax

T1 sequence (Q5S007 whole entry): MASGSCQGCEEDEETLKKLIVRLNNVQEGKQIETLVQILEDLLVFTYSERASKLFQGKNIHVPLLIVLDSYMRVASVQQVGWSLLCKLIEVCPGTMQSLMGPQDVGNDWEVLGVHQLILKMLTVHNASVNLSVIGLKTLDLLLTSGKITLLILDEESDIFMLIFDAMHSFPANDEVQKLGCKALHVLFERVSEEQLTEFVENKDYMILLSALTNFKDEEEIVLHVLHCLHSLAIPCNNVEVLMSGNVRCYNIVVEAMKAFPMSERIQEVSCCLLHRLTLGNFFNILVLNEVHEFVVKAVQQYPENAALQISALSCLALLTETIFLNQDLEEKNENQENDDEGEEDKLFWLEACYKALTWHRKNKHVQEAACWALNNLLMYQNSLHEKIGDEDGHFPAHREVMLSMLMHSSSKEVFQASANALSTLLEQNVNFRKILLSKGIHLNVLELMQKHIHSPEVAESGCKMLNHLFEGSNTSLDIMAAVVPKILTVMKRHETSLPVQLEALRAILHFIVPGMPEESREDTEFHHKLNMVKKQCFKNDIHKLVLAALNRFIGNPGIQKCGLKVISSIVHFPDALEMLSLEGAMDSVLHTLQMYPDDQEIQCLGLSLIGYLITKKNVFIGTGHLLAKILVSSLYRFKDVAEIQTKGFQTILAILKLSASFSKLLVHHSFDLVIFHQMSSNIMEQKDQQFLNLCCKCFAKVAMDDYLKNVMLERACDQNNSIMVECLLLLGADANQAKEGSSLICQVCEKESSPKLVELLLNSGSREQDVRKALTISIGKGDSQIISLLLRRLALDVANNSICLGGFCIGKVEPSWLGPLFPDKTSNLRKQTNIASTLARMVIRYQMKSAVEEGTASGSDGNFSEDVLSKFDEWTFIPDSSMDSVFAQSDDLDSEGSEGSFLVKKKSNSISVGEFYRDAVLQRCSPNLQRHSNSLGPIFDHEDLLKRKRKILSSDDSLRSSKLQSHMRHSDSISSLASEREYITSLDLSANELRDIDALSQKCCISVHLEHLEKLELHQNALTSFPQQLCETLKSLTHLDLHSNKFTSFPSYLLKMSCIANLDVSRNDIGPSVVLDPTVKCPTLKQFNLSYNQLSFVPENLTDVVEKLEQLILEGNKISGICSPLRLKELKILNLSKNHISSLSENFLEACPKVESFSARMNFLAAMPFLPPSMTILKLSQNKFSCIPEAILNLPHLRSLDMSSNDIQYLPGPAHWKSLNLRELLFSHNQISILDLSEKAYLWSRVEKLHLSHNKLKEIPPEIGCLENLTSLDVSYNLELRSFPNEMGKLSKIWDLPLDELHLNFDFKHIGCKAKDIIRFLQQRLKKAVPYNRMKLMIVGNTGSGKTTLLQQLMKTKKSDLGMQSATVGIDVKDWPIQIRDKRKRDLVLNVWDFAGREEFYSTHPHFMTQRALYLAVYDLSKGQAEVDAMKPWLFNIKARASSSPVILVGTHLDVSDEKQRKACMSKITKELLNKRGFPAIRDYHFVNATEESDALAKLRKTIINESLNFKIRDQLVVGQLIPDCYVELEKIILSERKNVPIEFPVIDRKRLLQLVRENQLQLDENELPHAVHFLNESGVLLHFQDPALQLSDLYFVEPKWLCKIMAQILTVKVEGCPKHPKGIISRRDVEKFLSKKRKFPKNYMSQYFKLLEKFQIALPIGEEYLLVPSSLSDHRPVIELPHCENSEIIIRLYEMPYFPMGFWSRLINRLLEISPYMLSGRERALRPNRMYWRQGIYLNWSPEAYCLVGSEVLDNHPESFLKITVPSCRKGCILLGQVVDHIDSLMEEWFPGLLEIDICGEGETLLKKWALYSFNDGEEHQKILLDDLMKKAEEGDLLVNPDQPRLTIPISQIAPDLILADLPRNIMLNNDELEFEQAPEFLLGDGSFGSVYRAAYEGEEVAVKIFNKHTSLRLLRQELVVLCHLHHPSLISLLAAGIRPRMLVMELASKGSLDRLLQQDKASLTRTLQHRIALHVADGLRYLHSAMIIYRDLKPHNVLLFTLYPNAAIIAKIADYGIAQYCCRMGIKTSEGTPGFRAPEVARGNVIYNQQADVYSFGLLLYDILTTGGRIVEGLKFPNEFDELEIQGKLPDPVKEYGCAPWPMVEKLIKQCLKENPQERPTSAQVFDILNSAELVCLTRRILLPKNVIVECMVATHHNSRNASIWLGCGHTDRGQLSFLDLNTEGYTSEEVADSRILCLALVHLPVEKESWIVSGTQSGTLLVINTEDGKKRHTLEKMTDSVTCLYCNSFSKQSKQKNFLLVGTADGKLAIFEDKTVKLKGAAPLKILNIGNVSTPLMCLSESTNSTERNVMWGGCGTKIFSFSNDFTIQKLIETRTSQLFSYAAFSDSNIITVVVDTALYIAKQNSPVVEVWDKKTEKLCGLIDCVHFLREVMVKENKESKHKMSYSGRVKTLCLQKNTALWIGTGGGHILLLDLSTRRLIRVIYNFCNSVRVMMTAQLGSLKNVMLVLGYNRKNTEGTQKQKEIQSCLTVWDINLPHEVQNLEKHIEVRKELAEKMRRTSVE

Compound | Dmax [1] | DC50 [2] | DC50 [3] | Dmax [4] | further results
C[C@H]1CN(CC2CCN(CC3CCN(c4cc(-c5n[nH]c6ccc(OC7(C)CC7)cc56)ncn4)CC3)CC2)CCN1c1ccc2c(c1F)CN(C1CCC(=O)NC1=O)C2=O (stereo partly drawn) [Compound 339, 3-{4-fluoro-5-[(2S)-2-methyl-4-({1-[(1-{6-[5-(1-methylcyclopropoxy)-1H-indazol-3-yl]pyrimidin-4-yl}piperidin-4-yl)methyl]piperidin-4-yl}methyl)piperazin-1-yl]-1-oxo-2,3-dihydro-1H-isoindol-2-yl}piperidine-2,6-dione] | 50 to 70% | < 10 nM |  |  | 
CC1(Oc2ccc3n[nH]c(-c4cc(N5CCC(CN6CCN(CC7CCN(c8c(F)ccc9c8CN(C8CCC(=O)NC8=O)C9=O)CC7)CC6)CC5)ncn4)c3c2)CC1 (stereo not drawn) [Compound 217, 3-[5-fluoro-4-[4-[[4-[[1-[6-[5-(1-methylcyclopropoxy)-2H-indazol-3-yl]pyrimidin-4-yl]-4-piperidyl]methyl]piperazin-1-yl]methyl]-1-piperidyl]-1-oxo-isoindolin-2-yl]piperidine-2,6-dione] |  |  | 10 to 50 nM | 50 to 70% | 
CC1(Oc2ccc3n[nH]c(-c4cc(N5CCC(O[C@H]6CC[C@H](OC7CCN(c8ccc9c(c8F)CN(C8CCC(=O)NC8=O)C9=O)CC7)C6)CC5)ncn4)c3c2)CC1 (mixture of isomers) [Compound 240, 3-[4-fluoro-5-[4-[(1S,3S)-3-[[1-[6-[5-(1-methylcyclopropoxy)-2H-indazol-3-yl]pyrimidin-4-yl]-4-piperidyl]oxy]cyclopentoxy]-1-piperidyl]-1-oxo-isoindolin-2-yl]piperidine-2,6-dione and 3-[4-fluoro-5-[4-[(1R,3R)-3-[[1-[6-[5-(1-methylcyclopropoxy)-2H-indazol-3-yl]pyrimidin-4-yl]-4-piperidyl]oxy]cyclopentoxy]-1-piperidyl]-1-oxo-isoindolin-2-yl]piperidine-2,6-dione] |  |  | < 10 nM | 50 to 70% | 
CC1(Oc2ccc3n[nH]c(-c4cc(N5CC(OC6CCN(CC7CCN(c8ccc9c(c8F)CN(C8CCC(=O)NC8=O)C9=O)CC7)CC6)C5)ncn4)c3c2)CC1 (stereo not drawn) [Compound 289, 3-{4-fluoro-5-[4-({4-[(1-{6-[5-(1-methylcyclopropoxy)-2H-indazol-3-yl]pyrimidin-4-yl}azetidin-3-yl)oxy]piperidin-1-yl}methyl)piperidin-1-yl]-1-oxo-2,3-dihydro-1H-isoindol-2-yl}piperidine-2,6-dione] | ≥ 70% | < 10 nM |  |  | 
COc1c(N2CCC(CN3CCN(CC4CCN(c5cc(-c6n[nH]c7ccc(OC8(C)CC8)cc67)ncn5)CC4)C(C)(C)C3)CC2)ccc2c1CN(C1CCC(=O)NC1=O)C2=O (stereo not drawn) [Compound 251, 3-{5-[4-({3,3-dimethyl-4-[(1-{6-[5-(1-methylcyclopropoxy)-1H-indazol-3-yl]pyrimidin-4-yl}piperidin-4-yl)methyl]piperazin-1-yl}methyl)piperidin-1-yl]-4-methoxy-1-oxo-2,3-dihydro-1H-isoindol-2-yl}piperidine-2,6-dione] |  |  | < 10 nM | 50 to 70% | 
COc1c(N2CCC(N3CC(OC4CCN(c5cc(-c6[nH]nc7ccc(OC8(C)CC8)cc67)ncn5)CC4)C3)CC2)ccc2c1CN(C1CCC(=O)NC1=O)C2=O (stereo not drawn) [Compound 356, 3-[4-methoxy-5-(4-{3-[(1-{6-[5-(1-methylcyclopropoxy)-2H-indazol-3-yl]pyrimidin-4-yl}piperidin-4-yl)oxy]azetidin-1-yl}piperidin-1-yl)-1-oxo-2,3-dihydro-1H-isoindol-2-yl]piperidine-2,6-dione] | 50 to 70% | < 10 nM |  |  | 
C[C@H]1CN(c2cc(-c3[nH]nc4cc(F)c(OC5(C)CC5)cc34)ncn2)CCN1CC1(F)CCN(CC2CCN(c3cc4c(cc3F)C(=O)N(C3CCC(=O)NC3=O)C4)CC2)CC1 (stereo partly drawn) [Compound 197, 3-(6-fluoro-5-{4-[(4-fluoro-4-{[(2S)-4-{6-[6-fluoro-5-(1-methylcyclopropoxy)-2H-indazol-3-yl]pyrimidin-4-yl}-2-methylpiperazin-1-yl]methyl}piperidin-1-yl)methyl]piperidin-1-yl}-1-oxo-2,3-dihydro-1H-isoindol-2-yl)piperidine-2,6-dione] |  |  |  |  | Dmax (endogenous HiBit-tagged LRRK2, HEK293 cells, 24 hours, read-out: **Endogenous WT Dmax (%)): ≥ 70%; DC50 (endogenous HiBit-tagged LRRK2, HEK293 cells, 24 hours, read-out: *Endogenous WT DC50): < 10 nM
COc1c(N2CCN(C[C@H]3C[C@H](OC4CCN(c5cc(-c6[nH]nc7ccc(OC8(C)CC8)cc67)ncn5)CC4)C3)CC2)ccc2c1CN(C1CCC(=O)NC1=O)C2=O (stereo partly drawn) [Compound 314, 3-[4-methoxy-1-oxo-5-(4-{[(1r,3r)-3-[(1-{6-[5-(1-methylcyclopropoxy)-2H-indazol-3-yl]pyrimidin-4-yl}piperidin-4-yl)oxy]cyclobutyl]methyl}piperazin-1-yl)-2,3-dihydro-1H-isoindol-2-yl]piperidine-2,6-dione] | 50 to 70% | < 10 nM |  |  | 
CC1(Oc2ccc3n[nH]c(-c4cc(N5CCC(O[C@H]6C[C@H](N7CC[C@@H](c8ccc9c(c8F)CN(C8CCC(=O)NC8=O)C9=O)[C@@H](F)C7)C6)CC5)ncn4)c3c2)CC1 (stereo partly drawn) [Compound 297, 3-{4-fluoro-5-[(3r,4s)-3-fluoro-1-[(1r,3r)-3-[(1-{6-[5-(1-methylcyclopropoxy)-2H-indazol-3-yl]pyrimidin-4-yl}piperidin-4-yl)oxy]cyclobutyl]piperidin-4-yl]-1-oxo-2,3-dihydro-1H-isoindol-2-yl}piperidine-2,6-dione] | 50 to 70% | < 10 nM |  |  | 
CC1(Oc2ccc3[nH]nc(-c4cc(N5CCC(CN6CCN(C[C@@H]7CCN(c8ccc9c(c8F)CN(C8CCC(=O)NC8=O)C9=O)C7)CC6)CC5)ncn4)c3c2)CC1 (stereo partly drawn) [Compound 321, 3-{4-fluoro-5-[(3S)-3-({4-[(1-{6-[5-(1-methylcyclopropoxy)-1H-indazol-3-yl]pyrimidin-4-yl}piperidin-4-yl)methyl]piperazin-1-yl}methyl)pyrrolidin-1-yl]-1-oxo-2,3-dihydro-1H-isoindol-2-yl}piperidine-2,6-dione] | 50 to 70% | < 10 nM |  |  | 
COc1c(N2CCC(CN3CCN(CC4CCN(c5cc(-c6n[nH]c7ccc(OC8(C)CC8)cc67)ncn5)CC4)[C@@H](C)C3)CC2)ccc2c1CN(C1CCC(=O)NC1=O)C2=O (stereo partly drawn) [Compound 256, 3-[4-methoxy-5-(4-{[(3S)-3-methyl-4-[(1-{6-[5-(1-methylcyclopropoxy)-1H-indazol-3-yl]pyrimidin-4-yl}piperidin-4-yl)methyl]piperazin-1-yl]methyl}piperidin-1-yl)-1-oxo-2,3-dihydro-1H-isoindol-2-yl]piperidine-2,6-dione] |  |  | < 10 nM | 50 to 70% | 
COc1c(N2CCC(CN3CCN(CC4CCN(c5cc(-c6n[nH]c7cnc(OC8(C)CC8)cc67)ncn5)CC4)[C@@H](C)C3)CC2)ccc2c1CN(C1CCC(=O)NC1=O)C2=O (stereo partly drawn) [Compound 282, 3-[4-methoxy-5-(4-{[(3S)-3-methyl-4-[(1-{6-[5-(1-methylcyclopropoxy)-1H-pyrazolo[3,4-c]pyridin-3-yl]pyrimidin-4-yl}piperidin-4-yl)methyl]piperazin-1-yl]methyl}piperidin-1-yl)-1-oxo-2,3-dihydro-1H-isoindol-2-yl]piperidine-2,6-dione] | ≥ 70% | < 10 nM |  |  | 
